Structures can show the parent of a compound that is named as a salt.

For ten compounds, IC50 results are on record in patent US10059701B2 (Merck Patent GmbH, priority 2015, dated 2018).

The target in test [1] is T1, IRAK4 (Homo sapiens, UniProt Q9NWZ3).
T1 construct: His-TEV-IRAK4 (1-460); His (N); TEV cleavage site (N)
T1 sequence (Q9NWZ3 1-460): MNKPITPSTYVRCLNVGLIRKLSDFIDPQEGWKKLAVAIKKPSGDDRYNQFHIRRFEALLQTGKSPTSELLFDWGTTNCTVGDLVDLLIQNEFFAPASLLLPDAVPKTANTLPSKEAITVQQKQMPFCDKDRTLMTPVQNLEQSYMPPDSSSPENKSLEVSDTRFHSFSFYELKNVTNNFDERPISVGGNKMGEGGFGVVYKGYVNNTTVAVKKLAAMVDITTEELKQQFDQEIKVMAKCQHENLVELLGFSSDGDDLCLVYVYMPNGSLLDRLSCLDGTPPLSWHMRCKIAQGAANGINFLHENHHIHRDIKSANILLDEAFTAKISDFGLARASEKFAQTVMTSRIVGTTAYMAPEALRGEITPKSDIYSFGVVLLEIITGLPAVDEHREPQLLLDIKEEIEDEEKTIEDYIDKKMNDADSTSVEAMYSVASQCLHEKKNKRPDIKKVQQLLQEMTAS
The test can be described thus: IRAK4 enzymatic assay (ADP-Glo luminescence). It is filed as biochemical. The settings on record: purified human recombinant His-TEV-IRAK4 (1-460), ATP 2 μM. In a few lines: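 ADP-Glo luminescence read-out after a 2 h RT kinase reaction with 2 μM ATP and 300 nM biotinylated STK1 peptide. Enzyme (His-TEV-IRAK4 1-460, 0.3 μg/ml) first incubated 15 min with serially diluted compounds (10 μM–0.5 nM) in 50 mM Hepes pH 7.0, 10 mM MgCl2, 5 mM MnCl2.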

Test [2] has as its target T2, IRAK1 (Homo sapiens, UniProt P51617).
T2 construct: His-TEV-IRAK1 (194-712); His (N); TEV cleavage site (N)
Nature of the test: IRAK1 enzymatic assay (ADP-Glo luminescence). It is filed as biochemical. The settings on record: purified human recombinant His-TEV-IRAK1 (194-712). In a few lines: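 Luminescent ADP-Glo read-out of ATP turnover by purified His-TEV-IRAK1 (194-712) at 0.3 μg/ml after a 2-hour RT reaction. Compounds, serially diluted from 10 μM to 0.5 nM, were preincubated with enzyme 15 minutes in Hepes pH 7.0 buffer with MgCl2, DTT, EGTA and Triton X-100.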
On the technique in general: ADP-Glo first removes unused ATP, then detects ADP through luciferase.

T2 sequence (P51617 194-712): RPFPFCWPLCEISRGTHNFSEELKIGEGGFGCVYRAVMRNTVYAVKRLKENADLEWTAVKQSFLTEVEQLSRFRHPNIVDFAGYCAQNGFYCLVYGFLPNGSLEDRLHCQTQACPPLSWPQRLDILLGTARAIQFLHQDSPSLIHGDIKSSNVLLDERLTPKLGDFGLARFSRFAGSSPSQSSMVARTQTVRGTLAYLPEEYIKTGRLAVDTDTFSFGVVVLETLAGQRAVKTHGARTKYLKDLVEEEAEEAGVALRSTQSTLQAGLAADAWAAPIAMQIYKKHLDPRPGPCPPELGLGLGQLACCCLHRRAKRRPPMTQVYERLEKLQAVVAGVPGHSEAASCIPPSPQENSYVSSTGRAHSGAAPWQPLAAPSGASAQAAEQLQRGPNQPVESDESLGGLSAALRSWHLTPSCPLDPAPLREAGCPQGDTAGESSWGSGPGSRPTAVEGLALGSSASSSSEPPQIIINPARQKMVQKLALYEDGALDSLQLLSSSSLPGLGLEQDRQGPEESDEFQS

Turning to `O=C(/N=c1\[nH]c2cc(N3CCOCC3=O)ccc2n1C1CCCC(CO)C1)c1cccc(C(F)F)c1` (centres unmarked) [Compound 121, (E)-3-(difluoromethyl)-N-(1-(3-(hydroxymethyl)cyclohexyl)-5-(3-oxomorpholino)-1H-benzo[d]imidazol-2(3H)-ylidene)benzamide], the IC50 is ≤ 100 nM in test [1] and 100 to 1000 nM in test [2].
In the same order, the values of `O=C(/N=c1\[nH]c2cc(N3CCOCC3=O)ccc2n1[C@H]1CC[C@@H](CO)CC1)c1cccc(C(F)(F)F)c1` [Compound 122, cis-(E)-N-(1-(4-(hydroxymethyl)cyclohexyl)-5-(3-oxomorpholino)-1H-benzo[d]imidazol-2(3H)-ylidene)-3-(trifluoromethyl)benzamide] are ≤ 100 nM and ≤ 100 nM.
The like results for `O=C(/N=c1\[nH]c2cc(N3CCOCC3=O)ccc2n1[C@H]1CC[C@@H](CO)CC1)c1cccc(C(F)F)c1` [Compound 123, cis-(E)-3-(difluoromethyl)-N-(1-(4-(hydroxymethyl)cyclohexyl)-5-(3-oxomorpholino)-1H-benzo[d]imidazol-2(3H)-ylidene)benzamide] were, in that order, ≤ 100 nM and ≤ 100 nM.
In the same order, the values of `CC(C)(C)OC(=O)N1CCC(n2/c(=N/C(=O)c3cccc(C(F)(F)F)c3)[nH]c3cc(N4CCOCC4=O)ccc32)CC1` [Compound 126, (E)-tert-butyl 4-(5-(3-oxomorpholino)-2-((3-(trifluoromethyl)benzoyl)imino)-2,3-dihydro-1H-benzo[d]imidazole-1-yl)piperidine-1-carboxylate] are ≤ 100 nM and > 1000 nM.
Regarding `CC(C)(C)OC(=O)N1CCC(n2/c(=N/C(=O)c3cccc(C(F)F)c3)[nH]c3cc(N4CCOCC4=O)ccc32)CC1` [Compound 127, (E)-tert-butyl 4-(2-((3-(difluoromethyl)benzoyl)imino)-5-(3-oxomorpholino)-2,3-dihydro-1H-benzo[d]imidazole-1-yl)piperidine-1-carboxylate], the IC50 in test [1] was ≤ 100 nM; in test [2] it was 100 to 1000 nM.
In the same order, the values of `O=C(/N=c1\[nH]c2cc(N3CCOCC3=O)ccc2n1C1CCNCC1)c1cccc(C(F)(F)F)c1` [Compound 128, (E)-N-(5-(3-oxomorpholino)-1-(piperidin-4-yl)-1H-benzo[d]imidazole-2(3H)-ylidene)-3-(trifluoromethyl)benzamide hydrochloride] are ≤ 100 nM and > 1000 nM.
In the same order, the values of `O=C(/N=c1\[nH]c2cc(N3CCOCC3=O)ccc2n1C1CCNCC1)c1cccc(C(F)F)c1` [Compound 129, (E)-3-(difluoromethyl)-N-(5-(3-oxomorpholino)-1-(piperidin-4-yl)-1H-benzo[d]imidazole-2(3H)-ylidene)benzamide hydrochloride] are ≤ 100 nM and 100 to 1000 nM.
The like results for `CC(=O)N1CCC(n2/c(=N/C(=O)c3cccc(C(F)(F)F)c3)[nH]c3cc(N4CCOCC4=O)ccc32)CC1` [Compound 130, (E)-N-(1-(1-acetylpiperidin-4-yl)-5-(3-oxomorpholino)-1H-benzo[d]imidazole-2(3H)-ylidene)-3-(trifluoromethyl)benzamide] were, in that order, ≤ 100 nM and ≤ 100 nM.
Turning to `CC(=O)N1CCC(n2/c(=N/C(=O)c3cccc(C(F)F)c3)[nH]c3cc(N4CCOCC4=O)ccc32)CC1` [Compound 131, (E)-N-(1-(1-acetylpiperidin-4-yl)-5-(3-oxomorpholino)-1H-benzo[d]imidazole-2(3H)-ylidene)-3-(difluoromethyl)benzamide], the IC50 in test [1] is ≤ 100 nM; in test [2], 100 to 1000 nM.
The like results for `CS(=O)(=O)N1CCC(n2/c(=N/C(=O)c3cccc(C(F)(F)F)c3)[nH]c3cc(N4CCOCC4=O)ccc32)CC1` [Compound 132, (E)-N-(1-(1-(methylsulfonyl)piperidin-4-yl)-5-(3-oxomorpholino)-1H-benzo[d]imidazole-2(3H)-ylidene)-3-(trifluoromethyl)benzamide] were, in that order, ≤ 100 nM and 100 to 1000 nM.

Broadly, the IC50 is the concentration at which inhibition is half-maximal.
